Results: patent publication US10233177B2, “TRPV1 vanilloid receptor antagonists with a bicyclic portion” (Serentrix LLC, priority 2010, dated 2019)
Read-outs that look alike come from different tables or passages of the source.

Columns and labels:
[1] = target: TRPV1 (Rattus norvegicus (Rat), UniProt O35433); test: Ca2+ fluorescence measurements in cultured rat dorsal root ganglia neurons (capsaicin-induced calcium uptake); format: cell-based; conditions: for inhibition at 0.3 µM: DRG neuron
[2] = test system: CCI-induced mechanical hyperalgesia; test: CCI-induced mechanical hyperalgesia (Randall-Selitto paw pressure); format: in vivo; conditions: rat CCI, 30 μmol/kg oral
Procedure: CCI-Induced Mechanical Hyperalgesia
Male SD rats (Charles River, Italy) weighing 250 g were anaesthetized with sodium pentobarbital (60 mg/kg, intraperitoneal (i.p.), 0.1 ml/10 g) and, under a dissecting microscope, the right common sciatic nerve was exposed at the level of the mid thigh and, proximal to the trifurcation of the nerve; four ligatures (4/0 chromic silk, Ethicon) were loosely tied around it, at about 0.5 mm spacing, until they elicited a brief twitch in the respective hind, taking care to preserve epineural circulation. Sham-operated animals (sciatic exposure without ligation) were used as controls. 14 days after the surgery, mechanical hyperalgesia was assessed using an analgesimeter (Ugo Basile, Italy, Randall-Selitto analgesic apparatus). This device generated a mechanical force on the affected paw and the nociceptive threshold was defined as the force (in g) at which the rat withdraws the paw (with a cut-off of 450 g). Two baseline measurement values were obtained 75 and 45 min before the actual test. After the second baseline measurement, animals were randomly allocated to the different treatment groups. Paw pressure test was performed 0, 75, 120, 165, 210 and 300 min after the oral administration of the compounds. All tested compounds were orally administrated (30 μmol/kg/10 ml) to rats by gavage.

[3] = Table 1, formula IA-C, 300 nM against calcium uptake induced by 30 nM capsaicin, rat DRG neurons, read-out: % inhibition at 300 nM
[4] = capsaicin-induced calcium uptake, rat DRG neurons, read-out: inhibition of the calcium uptake
[5] = 300 nM, rat DRG neurons, read-out: abolition of capsaicin response at 300 nM
[6] = Table 1, against capsaicin-evoked [Ca2+]i mobilization, rat DRG neurons, read-out: IC50
[7] = rat DRG neurons, read-out: IC50 against capsaicin-evoked [Ca2+]i mobilization
[8] = Table 3, formula IF-H, 300 nM against calcium uptake induced by 30 nM capsaicin, rat DRG neurons, read-out: % inhibition at 300 nM

Chain of TRPV1 (O35433 whole entry): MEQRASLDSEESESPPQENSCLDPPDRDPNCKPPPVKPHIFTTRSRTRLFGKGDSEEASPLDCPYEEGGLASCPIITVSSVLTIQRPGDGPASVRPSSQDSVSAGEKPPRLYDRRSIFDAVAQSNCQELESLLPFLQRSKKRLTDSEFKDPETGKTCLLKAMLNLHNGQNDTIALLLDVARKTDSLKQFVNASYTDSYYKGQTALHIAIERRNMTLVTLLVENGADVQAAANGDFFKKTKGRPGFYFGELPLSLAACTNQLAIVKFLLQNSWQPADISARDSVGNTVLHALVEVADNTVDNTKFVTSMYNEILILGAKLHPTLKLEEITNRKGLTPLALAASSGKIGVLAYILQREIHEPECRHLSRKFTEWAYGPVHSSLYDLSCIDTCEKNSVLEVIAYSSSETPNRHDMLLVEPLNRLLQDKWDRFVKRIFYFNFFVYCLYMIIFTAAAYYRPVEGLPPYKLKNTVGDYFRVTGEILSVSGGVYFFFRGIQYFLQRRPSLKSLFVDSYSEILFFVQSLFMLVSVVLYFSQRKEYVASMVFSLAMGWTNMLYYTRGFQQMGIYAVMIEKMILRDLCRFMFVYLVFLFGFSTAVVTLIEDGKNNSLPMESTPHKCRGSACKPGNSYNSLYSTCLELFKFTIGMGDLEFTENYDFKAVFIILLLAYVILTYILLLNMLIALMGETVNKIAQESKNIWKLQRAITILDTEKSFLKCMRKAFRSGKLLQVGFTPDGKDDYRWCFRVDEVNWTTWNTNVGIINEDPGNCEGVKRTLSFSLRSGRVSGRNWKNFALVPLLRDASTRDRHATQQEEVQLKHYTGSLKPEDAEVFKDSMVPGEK

| inhibition at 0.3 µM [1, 3] | inhibition at 0.3 µM [1, 4] | Structure (SMILES) | further results |
| --- | --- | --- | --- |
| 84% | > 80% | O=C(NCc1ccc(C(F)(F)F)cc1)Nc1cccc2[nH]c(=O)[nH]c12 [Example 1, 1-(4-(trifluoromethyl)benzyl)-3-(2,3-dihydro-2-oxo-1H-benzo[d]imidazol-4-yl)urea] | anti-hyperalgesic activity (in words) [2]: relevant and long lasting anti-hyperalgesic activity; reversal of hyperalgesia within the first 2 hours [2]: at least 80% |
| 95% | > 80% | O=C(NCc1ccc(C(F)(F)F)cc1N1CCCCC1)Nc1cccc2[nH]c(=O)[nH]c12 [Example 6, 1-(4-(trifluoromethyl)-2-(piperidin-1-yl)benzyl)-3-(2,3-dihydro-2-oxo-1H-benzo[d]imidazol-4-yl)urea] | inhibition at 0.3 µM [1, 5]: ~100%; IC50 [1, 6]: 0.51 nM; IC50 [1, 7]: 0.51 nM; anti-hyperalgesic activity (in words) [2]: relevant and long lasting anti-hyperalgesic activity; reversal of hyperalgesia within the first 2 hours [2]: at least 80% |
| 100% | > 80% | CC(C)Oc1cc(C(F)(F)F)ccc1CNC(=O)Nc1cccc2[nH]c(=O)[nH]c12 [Example 67, 1-[[2-isopropoxy-4-(trifluoromethyl)phenyl]methyl]-3-(2-oxo-1,3-dihydrobenzimidazol-4-yl)urea] | inhibition at 0.3 µM [1, 5]: ~100%; IC50 [1, 6]: 20 nM |
| 18% |  | O=C(NCc1ccc(F)cc1)Nc1cccc2[nH]c(=O)[nH]c12 [Example 9, 1-(4-fluorobenzyl)-3-(2,3-dihydro-2-oxo-1H-benzo[d]imidazol-4-yl)urea] |  |
| 88% | > 80% | O=C(NCc1ccc(C(F)(F)F)cn1)Nc1cccc2[nH]c(=O)[nH]c12 [Example 41, 1-(2-oxo-1,3-dihydrobenzimidazol-4-yl)-3-[[5-(trifluoromethyl)-2-pyridyl]methyl]urea] |  |
| 40% |  | CN(C)CCOc1nc(C(F)(F)F)ccc1CNC(=O)Nc1cccc2c1OCC(=O)N2 [Example 91, 1-[[2-(2-dimethylaminoethoxy)-6-(trifluoromethyl)-3-pyridyl]methyl]-3-(3-oxo-4H-1,4-benzoxazin-8-yl)urea] |  |
| 89% | > 80% | O=C(NCc1ccc(Cl)cc1)Nc1cccc2[nH]c(=O)[nH]c12 [Example 10, 1-(4-chlorobenzyl)-3-(2,3-dihydro-2-oxo-1H-benzo[d]imidazol-4-yl)urea] | IC50 [1, 6]: 79 nM |
| 57% |  | O=C1COc2c(cccc2NC(=O)NCc2ccc(C(F)(F)F)cn2)N1 [Example 83, 1-(3-oxo-4H-1,4-benzoxazin-8-yl)-3-[[5-(trifluoromethyl)-2-pyridyl]methyl]urea] |  |
|  |  | O=C(NCc1ccc(C(F)(F)F)cc1)c1cccc2oc(=O)[nH]c12 [Example 59, N-(4-(trifluoromethyl)benzyl)-2,3-dihydro-2-oxobenzo[d]oxazole-4-carboxamide] | inhibition at 0.3 µM [1, 8]: 5% |
| 79% |  | Cc1ccc(CNC(=O)Nc2cccc3c2OCC(=O)N3)c(OC(C)C)n1 [Example 85, 1-[(2-isopropoxy-6-methyl-3-pyridyl)methyl]-3-(3-oxo-4H-1,4-benzoxazin-8-yl)urea] |  |
| 54% |  | O=C(NCc1ccc(N2CCCC2)cc1)Nc1cccc2[nH]c(=O)[nH]c12 [Example 15, 1-(4-(pyrrolidin-1-yl)benzyl)-3-(2,3-dihydro-2-oxo-1H-benzo[d]imidazol-4-yl)urea] |  |
| 8% |  | CN(C)c1cc(C(F)(F)F)ccc1CNC(=O)Nc1cccc2oc(=O)[nH]c12 [Example 29, 1-(2-(dimethylamino)-4-(trifluoromethyl)benzyl)-3-(2,3-dihydro-2-oxobenzo[d]oxazol-4-yl)urea] |  |
| 48% |  | O=C(NCc1ccc(Cl)cc1N1CCC(O)C1)Nc1cccc2[nH]c(=O)[nH]c12 (stereo not drawn) [Example 22, 1-(4-chloro-2-(3-hydroxypyrrolidin-1-yl)benzyl)-3-(2,3-dihydro-2-oxo-1H-benzo[d]imidazol-4-yl)urea] |  |
|  |  | O=C1COc2c(cccc2C(=O)NCc2ccc(C(F)(F)F)cc2N2CCCCC2)N1 [Example 64, N-(4-(trifluoromethyl)-2-(piperidin-1-yl)benzyl)-3,4-dihydro-3-oxo-2H-benzo[b][1,4]oxazine-8-carboxamide] | inhibition at 0.3 µM [1, 8]: 65% |
| 100% | > 80% | O=C(NCc1ccc(C(F)(F)F)cc1N1CCCCC1)Nc1cccc2[nH]c(=O)oc12 [Example 36, 1-(4-(trifluoromethyl)-2-(piperidin-1-yl)benzyl)-3-(2,3-dihydro-2-oxobenzo[d]oxazol-7-yl)urea] | inhibition at 0.3 µM [1, 5]: ~100% |
|  |  | O=C(NCc1ccc(C(F)(F)F)cc1N1CCCCC1)c1cccc2oc(=O)[nH]c12 [Example 60, N-(4-(trifluoromethyl)-2-(piperidin-1-yl)benzyl)-2,3-dihydro-2-oxobenzo[d]oxazole-4-carboxamide] | inhibition at 0.3 µM [1, 8]: 8% |
| 100% | > 80% | CN(C)c1cc(C(F)(F)F)ccc1CNC(=O)Nc1cccc2[nH]c(=O)[nH]c12 [Example 4, 1-(2-(dimethylamino)-4-(trifluoromethyl)benzyl)-3-(2,3-dihydro-2-oxo-1H-benzo[d]imidazol-4-yl)urea] | inhibition at 0.3 µM [1, 5]: ~100%; IC50 [1, 6]: 4.07 nM; IC50 [1, 7]: 4.07 nM |
| 45% |  | O=C(NCc1ccc(F)cc1C(F)(F)F)Nc1cccc2oc(=O)[nH]c12 [Example 27, 1-(4-fluoro-2-(trifluoromethyl)benzyl)-3-(2,3-dihydro-2-oxobenzo[d]oxazol-4-yl)urea] |  |
| 30% |  | O=C1COc2cccc(NC(=O)NCc3ccc(C(F)(F)F)cc3)c2N1 [Example 42, 1-(4-(trifluoromethyl)benzyl)-3-(3,4-dihydro-3-oxo-2H-benzo[b][1,4]oxazin-5-yl)urea] |  |
| 18% |  | O=C(NCc1ccncc1)Nc1cccc2[nH]c(=O)[nH]c12 [Example 20, 1-(2,3-dihydro-2-oxo-1H-benzo[d]imidazol-4-yl)-3-((pyridin-4-yl)methyl)urea] |  |
| 71% |  | O=C1COc2c(cccc2NC(=O)NCc2ccc(C(F)(F)F)nc2)N1 [Example 77, 1-(3-oxo-4H-1,4-benzoxazin-8-yl)-3-[[6-(trifluoromethyl)-3-pyridyl]methyl]urea] |  |
|  |  | O=C(Cc1ccc(C(F)(F)F)cc1)Nc1cccc2oc(=O)[nH]c12 [Example 56, 2-(4-(trifluoromethyl)phenyl)-N-(2,3-dihydro-2-oxobenzo[d]oxazol-4-yl)acetamide] | inhibition at 0.3 µM ([1]; Table 2, formula ID-E, 300 nM against calcium uptake induced by 30 nM capsaicin, rat DRG neurons, read-out: % inhibition at 300 nM): 31% |
| 92% | > 80% | CC(C)(C)c1ccc(CNC(=O)Nc2cccc3c2OCC(=O)N3)cc1 [Example 89, 1-[(4-tert-butylphenyl)methyl]-3-(3-oxo-4H-1,4-benzoxazin-8-yl)urea] | IC50 [1, 6]: 19.8 nM |
|  |  | O=C1COc2cccc(OC(=O)NCc3ccc(C(F)(F)F)cc3)c2N1 [Example 65, 3,4-dihydro-3-oxo-2H-benzo[b][1,4]oxazin-5-yl 4-(trifluoromethyl)benzylcarbamate] | inhibition at 0.3 µM ([1]; read-out: % inhibition at 300 nM): 4% |
| 16% |  | O=C(NCc1ccc(Cl)cc1)Nc1cccc2oc(=O)[nH]c12 [Example 33, 1-(4-chlorobenzyl)-3-(2,3-dihydro-2-oxobenzo[d]oxazol-4-yl)urea] |  |
| 44% |  | Cc1ccc(CNC(=O)Nc2cccc3[nH]c(=O)[nH]c23)cc1 [Example 17, 1-(4-methylbenzyl)-3-(2,3-dihydro-2-oxo-1H-benzo[d]imidazol-4-yl)urea] |  |
| 100% | > 80% | CN(C)c1nc(C(F)(F)F)ccc1CNC(=O)Nc1cccc2c1OCC(=O)N2 [Example 86, 1-[[2-dimethylamino-6-(trifluoromethyl)-3-pyridyl]methyl]-3-(3-oxo-4H-1,4-benzoxazin-8-yl)urea] | inhibition at 0.3 µM [1, 5]: ~100%; IC50 [1, 6]: 17 nM |
| 19% |  | O=C(NCc1ccc(C(F)(F)F)cc1)Nc1cccc2[nH]c(=O)oc12 [Example 34, 1-(4-(trifluoromethyl)benzyl)-3-(2,3-dihydro-2-oxobenzo[d]oxazol-7-yl)urea] |  |
| 86% | > 80% | O=C(NCc1ccc(N2CCCCC2)cc1)Nc1cccc2[nH]c(=O)[nH]c12 [Example 16, 1-(4-(piperidin-1-yl)benzyl)-3-(2,3-dihydro-2-oxo-1H-benzo[d]imidazol-4-yl)urea] |  |
| 54% |  | Cc1ccc(CNC(=O)Nc2cccc3c2OCC(=O)N3)cc1 [Example 79, 1-(3-oxo-4H-1,4-benzoxazin-8-yl)-3-(p-tolylmethyl)urea] |  |
